Assay results: paper PMC10135050, “Neutralizing Carbapenem Resistance by Co-Administering Meropenem with Novel β-Lactam-Metallo-β-Lactamase Inhibitors” (Antibiotics, 2023)
“Also recorded” adds a separate entry of the source.

Columns and labels:
[1] = tested on: Klebsiella pneumoniae USA 449 (NDM); experiment: MIC, broth microdilution and checkerboard assay; type: cell-based; conditions: read-out: MIC BP2 Alone
Method: (§1) The Minimum Inhibitory Concentration (MIC) of meropenem BP2 was determined utilizing the broth microdilution assay, as described by the Clinical and Laboratory Standards Institute (CLSI) antimicrobial susceptibility guidelines. The mono-therapeutic effect of each antibiotic and MBLI was evaluated across a panel of MBL-producing Enterobacterales.
(§2) The drug susceptibility profile of meropenem in combination with BP2 was studied using the checkerboard assay. This assay was used to ascertain the effect of two drugs on antimicrobial resistance targeting CRE strains. The assay was performed according to the protocol described previously and was under CLSI antimicrobial susceptibility guidelines. Briefly, twofold dilutions of meropenem with each chelator were made in Cation-adjusted Mueller Hinton Broth (CAMHB) in a 96-well microtiter plate. A 0.5 McFarland-standardized bacterial inoculum was added to each well to obtain a final volume of 100 µL per well. Thereafter, plates were incubated at 37 °C for 18 h under aerobic conditions. The checkerboard assays were performed in triplicate. The MIC was determined as the lowest concentration at which no visible growth was present. The fractional inhibitory concentration index (FICI) was calculated for each combination according to the equation FICI = FICa (MIC of drug A in combination/MIC of drug A alone) + FICb (MIC of drug B in combination/MIC of drug B alone). The FICI was interpreted as follows: synergy, FICI ≤ 0.5; additive 0.5–1; indifference, […] FICI < 4; and antagonism, FICI ≥ 4 [61].

[2] = tested on: Escherichia coli TC CARF (VIM-2); experiment: MIC, broth microdilution and checkerboard assay; type: cell-based; conditions: read-out: MIC BP2 Alone
Method: as §1, §2

[3] = target: T1, Recombinant human glyoxylase II (Glo2) (Homo sapiens, UniProt Q16775); experiment: Non-specific binding to zinc in non-MBLs, glyoxylase II activity; type: biochemical; conditions: concentrations up to 500 µM
T1 construct: purchased BioVision Inc., Waltham, MA, USA
From the text: Metal chelators are known to suffer from off-target specificity and as a result have been criticized as potential MBLIs in vivo [44].
The methodology has been previously described. EDTA (purchased from Merck KGaA, Darmstadt, Germany) was included as a positive control.

[4] = tested on: Escherichia coli ATCC 25922; experiment: MIC, broth microdilution and checkerboard assay; type: cell-based; conditions: ATCC25922, E. coli ATCC 25922, no MBL, alone, read-out: MIC MEM Alone
Method: as §1, §2

[5] = tested on: K. pneumoniae NDM; experiment: Murine thigh infection model; type: in vivo, Klebsiella pneumoniae; conditions: neutropenic BALB/c mice, 100 mg/kg IP every 2 h
Method: A murine thigh infection model described by Michail et al. was performed with minor modifications. Male Bragg inbred albino c-strain (BALB/c) mice weighing 20–25 g (n = 90) were used in this study. Each of the three groups constituted n = 30 mice, with n = 6 mice receiving treatment every two hours. Prior to infection, mice were IP treated with 150 mg/kg cyclophosphamide on day one and 100 mg/kg on day four of the trial. This was performed to induce neutropenia in the mice. Neutropenia was confirmed by a neutrophil count of <100/mm^3. On day five of the trial, 0.1 mL inoculum containing 10^6–10^8 cfu/mL of K. pneumoniae NDM were IM injected into the right thigh of the mice to initiate infection. Meropenem monotherapy, BP2 + meropenem combination therapy, or normal saline was administered every two hours in an eight-hour treatment period. Mice were euthanized by isoflurane overdose at 2 h, 4 h, 6 h and 8 h post dosing. The right thigh muscle was then aseptically removed and homogenized in 5 mL PBS. Homogenates were spread onto Mueller–Hinton agar and MacConkey agar plates, followed by incubation at 35 °C for 24 h and enumeration of the cfu/mL.

[6] = tested on: K. pneumoniae NDM; experiment: Time-kill study; type: cell-based; conditions: meropenem monotherapy
Method: Time-kill studies were performed according to previously published methods, including those described by CLSI document M26-A [62]. Briefly, an overnight culture of K. pneumoniae NDM was diluted to a 0.5 McFarland standard that correlated to approximately […]. The prepared bacterial suspensions were added to 96-well plates containing a fixed dose of 32 mg/L of BP2 and meropenem in concentrations of 0.5, 1 or 2 mg/L. Plates were incubated at 35 °C and 100 rpm shaking. A bacterial control without adding any drugs was included, and a meropenem-only control employing similar conditions. Viability counts were performed at 0, 2, 4, 6, 8, and 24 h by sampling 0.1 mL, diluting as appropriate, and spreading onto Mueller Hinton agar (MHA). These plates were incubated at 35 °C for at least 18 h. Colonies were enumerated as cfu/mL.

| Structure (SMILES) | MIC [1] [µg/mL] | MIC [2] [µg/mL] | Glyoxylase II activity [3] | MIC [4] [µg/mL] | Best Log10 Cfu/ml ([5]; treatment time 2 h) [Log10 Cfu/ml] | Mean Log10 Cfu/ml ([5]; treatment time 2 h) [Log10 Cfu/ml] | Best Log10 Cfu/ml ([5]; treatment time 4 h) [Log10 Cfu/ml] | Mean Log10 Cfu/ml ([5]; treatment time 4 h) [Log10 Cfu/ml] | Best Log10 Cfu/ml ([5]; treatment time 6 h) [Log10 Cfu/ml] | Mean Log10 Cfu/ml ([5]; treatment time 6 h) [Log10 Cfu/ml] | Best Log10 Cfu/ml ([5]; treatment time 8 h) [Log10 Cfu/ml] | Mean Log10 Cfu/ml ([5]; treatment time 8 h) [Log10 Cfu/ml] | Increase in bacteria compared to the BP2 + meropenem-treated group [6] [log10] |
| --- | --- | --- | --- | --- | --- | --- | --- | --- | --- | --- | --- | --- | --- |
| CON=C(C(=O)NC1C(=O)N2C(C(=O)O)=C(COC(C)=O)CSC12)c1csc(NC(=O)CC(C(=O)OC)N2CCN(CC(=O)O)CCN(CC(=O)O)CC2)n1 (stereo in doubt) [BP2] | > 256 | > 256 | did not reduce the activity; also recorded: did not interact | – | – | – | – | – | – | – | – | – | – |
| C[C@@H](O)[C@H]1C(=O)N2C(C(=O)O)=C(S[C@@H]3CN[C@H](C(=O)N(C)C)C3)[C@H](C)[C@H]12 [Meropenem] | – | – | – | 0.06 | 7.2 | 6.8 | 8 | 8.3 | 8.3 | 8.4 | 8.3 | 8.2 | > 2 |
